Results as given in patent publication US20060292653A1, “Metal mediated fluorescence superquenching assays for detection of phosphorylation and dephosphorylation of quencher-labeled substrates” (priority 2005, published 2006).

What was measured:
Assay type in all cases: biochemical
PI3 beta = target: T1, PI3 beta (Homo sapiens, UniProt P42338); assay: Enhancer activity, real-time (kinetic) versus endpoint monitoring
T1 construct: purchased Upstate (Lake Placid, N.Y.)
Excerpt: (§1) Kinetic or real-time assays allow one to observe the mode of action of inhibitors and activator of enzyme activity in “real time”. Several inhibitor profiles are contemplated herein.
(§2) Another type of inhibitor profile utilizes the mode of action of enhancers. Enhancers may cause a very steep increase in activity (compared to control) within several minutes of reaction and then flatten out over time to an activity equal to that of the control. Thus, endpoint measurement could miss these enhancers. For example, Trypohostin 35, Trypohostin 25 and GW 5074 are enhancers of PI3 alpha, beta, and delta, respectively, in real time, and result in a >50% increase of activity within 5 minutes of reaction compared to ˜20% when monitored in endpoint mode. Enhancers may not be of therapeutic value for PI3Ks (since their pathological effect is exerted mainly by over-activity to begin with) but knowledge of chemical structure of enhancers may facilitate identification and/or confirmation of environmental pathogens, which may cause disease.

PI3 alpha = target: T2, PI3 alpha (Homo sapiens, UniProt P42336); assay: as above
T2 construct: purchased Upstate (Lake Placid, N.Y.)
Excerpt: as §1, §2

PI3K δ = target: T3, PI3K δ (Homo sapiens, UniProt O00329); settings: ratiometric 490 nm/574 nm
T3 construct: purchased Upstate (Lake Placid, N.Y.)
Description: Percent activities are plotted for each compound screened using the ratio of wavelengths at 490 nm/574 nm. Inhibition values were calculated relative to positive and negative controls wells and corrected for background (filled squares, filled diamonds). […] Final concentrations of enzyme, substrate and ATP were 2.6 nM, 250 nM and 50 μM. The delta RFU between reactions in the presence and absence of enzyme were obtained and used to calculate % inhibition.

PI3 delta = target: T4, PI3 delta (Homo sapiens, UniProt O00329); assay: Enhancer activity, real-time (kinetic) versus endpoint monitoring
T4 construct: purchased Upstate (Lake Placid, N.Y.)
Excerpt: as §1, §2

[1] = real time, within 5 minutes of reaction

T4 sequence (O00329 whole entry, species assumed): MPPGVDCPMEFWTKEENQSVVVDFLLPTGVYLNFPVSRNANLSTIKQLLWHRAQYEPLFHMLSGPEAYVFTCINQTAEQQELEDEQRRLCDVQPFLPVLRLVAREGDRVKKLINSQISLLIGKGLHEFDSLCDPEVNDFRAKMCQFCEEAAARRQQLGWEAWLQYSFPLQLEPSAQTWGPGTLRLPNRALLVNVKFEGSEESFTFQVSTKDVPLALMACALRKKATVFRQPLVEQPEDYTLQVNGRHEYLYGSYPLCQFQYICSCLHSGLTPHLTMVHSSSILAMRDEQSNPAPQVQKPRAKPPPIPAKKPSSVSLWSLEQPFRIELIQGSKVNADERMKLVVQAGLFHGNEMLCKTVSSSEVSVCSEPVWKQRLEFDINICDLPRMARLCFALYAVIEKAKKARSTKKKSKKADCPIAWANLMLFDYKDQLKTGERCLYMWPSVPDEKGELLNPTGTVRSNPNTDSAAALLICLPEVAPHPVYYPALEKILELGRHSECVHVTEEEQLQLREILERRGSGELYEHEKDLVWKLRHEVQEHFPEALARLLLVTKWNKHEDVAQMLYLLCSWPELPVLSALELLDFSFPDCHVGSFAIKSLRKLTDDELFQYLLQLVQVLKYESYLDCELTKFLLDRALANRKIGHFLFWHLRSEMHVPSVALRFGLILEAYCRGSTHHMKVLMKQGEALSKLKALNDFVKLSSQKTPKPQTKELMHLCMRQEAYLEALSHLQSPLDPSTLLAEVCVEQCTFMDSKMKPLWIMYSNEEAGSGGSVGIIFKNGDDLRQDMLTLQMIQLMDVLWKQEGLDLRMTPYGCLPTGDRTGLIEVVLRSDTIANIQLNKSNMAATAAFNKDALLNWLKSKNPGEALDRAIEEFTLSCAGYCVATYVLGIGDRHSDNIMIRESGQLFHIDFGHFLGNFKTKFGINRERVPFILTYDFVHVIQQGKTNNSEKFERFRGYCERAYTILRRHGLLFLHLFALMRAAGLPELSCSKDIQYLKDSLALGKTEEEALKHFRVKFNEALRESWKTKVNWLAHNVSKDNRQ
T4 sequence (P27986 whole entry partner, species assumed): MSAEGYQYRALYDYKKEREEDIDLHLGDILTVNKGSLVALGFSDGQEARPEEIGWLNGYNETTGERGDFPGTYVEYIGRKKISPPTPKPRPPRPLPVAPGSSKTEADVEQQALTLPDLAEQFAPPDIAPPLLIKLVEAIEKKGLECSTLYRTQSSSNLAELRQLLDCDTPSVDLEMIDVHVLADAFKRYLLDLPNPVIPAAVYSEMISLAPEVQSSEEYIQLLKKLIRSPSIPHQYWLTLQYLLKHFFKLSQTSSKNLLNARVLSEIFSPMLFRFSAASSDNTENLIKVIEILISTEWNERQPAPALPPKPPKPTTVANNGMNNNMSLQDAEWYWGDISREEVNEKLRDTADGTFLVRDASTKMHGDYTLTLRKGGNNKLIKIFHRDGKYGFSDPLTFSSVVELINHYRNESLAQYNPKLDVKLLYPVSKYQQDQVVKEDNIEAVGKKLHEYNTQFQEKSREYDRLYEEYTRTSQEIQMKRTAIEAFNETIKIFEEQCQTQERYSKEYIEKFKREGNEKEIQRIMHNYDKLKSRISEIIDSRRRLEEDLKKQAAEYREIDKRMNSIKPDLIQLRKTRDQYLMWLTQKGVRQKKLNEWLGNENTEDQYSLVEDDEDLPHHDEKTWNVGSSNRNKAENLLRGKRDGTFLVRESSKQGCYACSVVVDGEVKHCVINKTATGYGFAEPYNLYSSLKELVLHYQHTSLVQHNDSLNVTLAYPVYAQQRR
T2 sequence (P42336 whole entry, species assumed): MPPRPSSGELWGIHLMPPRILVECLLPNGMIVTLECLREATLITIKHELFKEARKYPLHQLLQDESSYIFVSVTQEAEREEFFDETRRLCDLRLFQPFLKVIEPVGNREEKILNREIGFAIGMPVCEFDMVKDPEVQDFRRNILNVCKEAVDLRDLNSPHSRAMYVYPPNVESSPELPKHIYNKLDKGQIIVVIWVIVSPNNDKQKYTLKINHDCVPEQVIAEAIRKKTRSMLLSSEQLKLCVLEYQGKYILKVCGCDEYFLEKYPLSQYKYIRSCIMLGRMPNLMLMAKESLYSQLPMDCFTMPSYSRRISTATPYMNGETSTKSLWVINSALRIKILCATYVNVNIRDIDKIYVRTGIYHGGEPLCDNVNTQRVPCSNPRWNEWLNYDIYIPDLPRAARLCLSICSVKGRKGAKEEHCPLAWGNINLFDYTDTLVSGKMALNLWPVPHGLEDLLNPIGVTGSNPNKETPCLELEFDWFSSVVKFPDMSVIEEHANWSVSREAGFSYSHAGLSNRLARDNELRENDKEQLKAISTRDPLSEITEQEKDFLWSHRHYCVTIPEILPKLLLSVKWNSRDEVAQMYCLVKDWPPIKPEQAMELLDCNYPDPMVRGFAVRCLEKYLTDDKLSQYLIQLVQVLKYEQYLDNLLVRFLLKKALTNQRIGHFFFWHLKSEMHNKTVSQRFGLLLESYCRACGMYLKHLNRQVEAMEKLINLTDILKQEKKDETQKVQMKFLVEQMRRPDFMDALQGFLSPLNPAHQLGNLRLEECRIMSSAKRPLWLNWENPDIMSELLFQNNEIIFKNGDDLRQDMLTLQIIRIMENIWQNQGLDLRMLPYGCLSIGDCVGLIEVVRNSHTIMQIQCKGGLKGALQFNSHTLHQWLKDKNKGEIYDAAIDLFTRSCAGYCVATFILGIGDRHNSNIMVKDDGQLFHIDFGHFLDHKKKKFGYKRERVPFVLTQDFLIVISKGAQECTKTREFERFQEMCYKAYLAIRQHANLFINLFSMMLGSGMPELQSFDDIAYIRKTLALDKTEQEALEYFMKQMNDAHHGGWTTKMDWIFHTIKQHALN
T2 sequence (P27986 whole entry partner, species assumed): as the sequence (P27986 whole entry partner, species assumed) above
T1 sequence (P42338 whole entry): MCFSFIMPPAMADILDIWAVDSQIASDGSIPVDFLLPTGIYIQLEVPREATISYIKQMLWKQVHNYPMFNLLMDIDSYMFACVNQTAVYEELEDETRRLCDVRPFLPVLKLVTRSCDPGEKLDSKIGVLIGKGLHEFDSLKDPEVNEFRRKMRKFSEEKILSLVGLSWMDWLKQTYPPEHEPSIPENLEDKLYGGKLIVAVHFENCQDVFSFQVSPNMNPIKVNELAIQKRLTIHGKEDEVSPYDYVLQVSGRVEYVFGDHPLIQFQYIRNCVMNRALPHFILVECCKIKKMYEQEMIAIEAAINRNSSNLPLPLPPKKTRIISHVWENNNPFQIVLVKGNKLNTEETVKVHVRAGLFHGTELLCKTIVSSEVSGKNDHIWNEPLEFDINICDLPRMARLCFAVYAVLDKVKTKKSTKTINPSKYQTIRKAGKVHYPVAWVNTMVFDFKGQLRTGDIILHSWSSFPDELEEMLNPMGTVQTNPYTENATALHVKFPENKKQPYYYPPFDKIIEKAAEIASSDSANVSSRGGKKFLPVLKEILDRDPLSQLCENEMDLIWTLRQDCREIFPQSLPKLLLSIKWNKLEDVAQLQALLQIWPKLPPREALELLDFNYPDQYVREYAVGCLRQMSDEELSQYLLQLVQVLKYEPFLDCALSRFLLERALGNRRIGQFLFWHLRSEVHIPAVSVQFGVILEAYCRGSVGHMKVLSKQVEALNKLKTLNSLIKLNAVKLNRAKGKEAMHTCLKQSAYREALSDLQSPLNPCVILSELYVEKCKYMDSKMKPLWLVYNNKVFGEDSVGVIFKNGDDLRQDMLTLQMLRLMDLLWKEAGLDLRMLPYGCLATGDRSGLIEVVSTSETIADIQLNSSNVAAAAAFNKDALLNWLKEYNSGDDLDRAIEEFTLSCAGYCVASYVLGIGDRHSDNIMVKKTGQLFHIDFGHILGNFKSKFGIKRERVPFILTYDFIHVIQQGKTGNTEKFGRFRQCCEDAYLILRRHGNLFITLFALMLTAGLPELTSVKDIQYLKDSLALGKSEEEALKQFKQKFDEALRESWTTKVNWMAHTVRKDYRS
T1 sequence (P27986 whole entry partner): as the sequence (P27986 whole entry partner, species assumed) above
T3 sequence (O00329 whole entry, species assumed): as the sequence (O00329 whole entry, species assumed) above
T3 sequence (P27986 whole entry partner, species assumed): as the sequence (P27986 whole entry partner, species assumed) above

`N#CC(C#N)=Cc1cc(O)c(O)c(O)c1` [Trypohostin 25] was tested, and the “increase of activity compared to control” value (PI3 beta; endpoint mode) was about 20% and the “increase of activity compared to control” value (PI3 beta; [1]) was over 50%.
With Trypohostin 35 the “increase of activity compared to control” value (PI3 alpha; endpoint mode) was about 20% and the “increase of activity compared to control” value (PI3 alpha; [1]) was over 50%.
For `O.O.O=c1c(O)c(-c2ccc(O)c(O)c2)oc2cc(O)cc(O)c12` [Quercetin Dihydrate], the “identification as inhibitor in the 84 compound screen” value (PI3K δ) was “correctly identified”.
In the case of `O=C1Nc2ccc(I)cc2/C1=C/c1cc(Br)c(O)c(Br)c1` [GW 5074], the “increase of activity compared to control” value (PI3 delta; endpoint mode) was about 20% and the “increase of activity compared to control” value (PI3 delta; [1]) was over 50%.
